Literature values as cited in patent US8703900B2 (BioAmber Inc., priority 2010, dated 2014).

Details: first acid group

O=C(O)CCCCC(=O)O [AA, adipic acid]
pKa1: 4.43
